Assay results as given in PubChem BioAssay AID1963858 (Molecular Pharmacology Branch, DTP, NCI, 2024).
Calls of active or inactive are those of the source. How the source made its calls: active means viability on the fitted dose curve at most 10% of control; inactive means the rest.

Test system: HOP-62 multicell spheroids with HUVEC/MSC, viability
Test: Anticancer human tumor HOP-62 cell line growth inhibition [KRAS2];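 on IC50: viability read after a week of compound exposure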;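 on viability, T/C: viability read after a week of compound exposure; 100% = DMSO vehicle-treated spheroids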
Conditions: for IC50: curve of first compound; for viability, T/C: stronger effect = lower value
Method in brief: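 KRAS-mutant tumor cells were grown as spheroids with HUVEC endothelial cells and human MSCs as stroma. Targeted agents were tested alone and with KRAS pathway inhibitors. Doses started at or near clinical Cmax, or 10 microM, descending half-log.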

[1] = second compound 0.1 µM, first compound 0.01 µM
[2] = second compound 0.1 µM, first compound 0.0316 µM
[3] = second compound 0.1 µM, first compound 0.1 µM
[4] = second compound 0.1 µM, first compound 0.316 µM
[5] = second compound 0.1 µM, first compound 1 µM
[6] = second compound 0.1 µM, first compound 3.16 µM
[7] = second compound 0.316 µM, first compound 0.01 µM
[8] = second compound 0.316 µM, first compound 0.0316 µM
[9] = second compound 0.316 µM, first compound 0.1 µM
[10] = second compound 0.316 µM, first compound 0.316 µM
[11] = second compound 0.316 µM, first compound 1 µM
[12] = second compound 0.316 µM, first compound 3.16 µM
[13] = second compound 1 µM, first compound 0.01 µM
[14] = second compound 1 µM, first compound 0.0316 µM
[15] = second compound 1 µM, first compound 0.1 µM
[16] = second compound 1 µM, first compound 0.316 µM
[17] = second compound 1 µM, first compound 1 µM
[18] = second compound 1 µM, first compound 3.16 µM
[19] = second compound 3.16 µM, first compound 0.01 µM
[20] = second compound 3.16 µM, first compound 0.0316 µM
[21] = second compound 3.16 µM, first compound 0.1 µM
[22] = second compound 3.16 µM, first compound 0.316 µM
[23] = second compound 3.16 µM, first compound 1 µM
[24] = second compound 3.16 µM, first compound 3.16 µM
[25] = second compound 10 µM, first compound 0.01 µM
[26] = second compound 10 µM, first compound 0.0316 µM
[27] = second compound 10 µM, first compound 0.1 µM
[28] = second compound 10 µM, first compound 0.316 µM
[29] = second compound 10 µM, first compound 1 µM
[30] = second compound 10 µM, first compound 3.16 µM
[31] = second compound 0.1 µM, first compound 10 µM
[32] = second compound 0.316 µM, first compound 10 µM
[33] = second compound 1 µM, first compound 10 µM
[34] = second compound 3.16 µM, first compound 10 µM
[35] = second compound 10 µM, first compound 10 µM

SMILES | IC50 (second compound 0.1 µM) | IC50 (second compound 0.316 µM) | IC50 (second compound 1 µM) | IC50 (second compound 3.16 µM) | IC50 (second compound 10 µM) | viability, T/C [2] | viability, T/C [3] | viability, T/C [4] | viability, T/C [5] | viability, T/C [6] | viability, T/C [8] | viability, T/C [9] | viability, T/C [10] | viability, T/C [11] | viability, T/C [14] | viability, T/C [15] | viability, T/C [20] | viability, T/C [21] | viability, T/C [26] | viability, T/C [27] | other results
CC(=O)OC12COC1CC(O)C1(C)C(=O)C(O)C3=C(C)C(OC(=O)C(O)C(NC(=O)OC(C)(C)C)c4ccccc4)CC(O)(C(OC(=O)c4ccccc4)C21)C3(C)C (stereo not given) + CC1OCC2(CCN(c3cnc(Sc4ccnc(N)c4Cl)c(N)n3)CC2)C1N | < 0.01 µM | < 0.01 µM | < 0.01 µM | < 0.01 µM | < 0.01 µM | 34.9% | 35.6% | 37.6% | 38.2% | 40.1% | 33% | 31.2% | 29.8% | 33.1% | 33.8% | 32.7% | 22.3% | 39.3% | 18.8% | 35.4% | viability, T/C [1]: 35.9%; viability, T/C [7]: 31.2%; viability, T/C [12]: 36.4%; viability, T/C [13]: 37.5%; viability, T/C [16]: 34.5%; viability, T/C [17]: 34.8%; viability, T/C [18]: 45%; viability, T/C [19]: 25.5%; viability, T/C [22]: 25.5%; viability, T/C [23]: 25.6%; viability, T/C [24]: 26.9%; viability, T/C [25]: 23%; viability, T/C [28]: 23.5%; viability, T/C [29]: 25.7%; viability, T/C [30]: 29.4%
CN(C)C/C=C/C(=O)Nc1cc2c(Nc3ccc(F)c(Cl)c3)ncnc2cc1O[C@H]1CCOC1 + CC1OCC2(CCN(c3cnc(Sc4ccnc(N)c4Cl)c(N)n3)CC2)C1N | > 0.1 µM | > 0.1 µM | > 0.1 µM | > 0.1 µM | < 0.000316 µM | 102% | 91.3% | – | – | – | 90.9% | 79.2% | – | – | 105% | 104% | 56.7% | 47.1% | 49.4% | 46.8% | viability, T/C (second compound 0.1 µM, first compound 0.000316 µM): 112%; viability, T/C (second compound 0.1 µM, first compound 0.001 µM): 109%; viability, T/C (second compound 0.1 µM, first compound 0.00316 µM): 103%; viability, T/C [1]: 95.4%; viability, T/C (second compound 0.316 µM, first compound 0.000316 µM): 97.6%; viability, T/C (second compound 0.316 µM, first compound 0.001 µM): 93.9%; viability, T/C (second compound 0.316 µM, first compound 0.00316 µM): 104%; viability, T/C [7]: 86.2%; viability, T/C (second compound 1 µM, first compound 0.000316 µM): 110%; viability, T/C (second compound 1 µM, first compound 0.001 µM): 106%; viability, T/C (second compound 1 µM, first compound 0.00316 µM): 107%; viability, T/C [13]: 102%; viability, T/C (second compound 3.16 µM, first compound 0.000316 µM): 60.8%; viability, T/C (second compound 3.16 µM, first compound 0.001 µM): 46.2%; viability, T/C (second compound 3.16 µM, first compound 0.00316 µM): 53.3%; viability, T/C [19]: 53.3%; outcome (second compound 10 µM, first compound 0.000316 µM): inactive; outcome (second compound 10 µM, first compound 0.001 µM): inactive; viability, T/C (second compound 10 µM, first compound 0.00316 µM): 43.6%; outcome [25]: inactive
COC(=O)c1ccc2c(C(=Nc3ccc(N(C)C(=O)CN4CCN(C)CC4)cc3)c3ccccc3)c(O)[nH]c2c1 + CC1OCC2(CCN(c3cnc(Sc4ccnc(N)c4Cl)c(N)n3)CC2)C1N | 0.179 µM | 0.105 µM | < 0.0316 µM | < 0.0316 µM | < 0.0316 µM | 75.1% | 57.4% | 43.7% | 29.2% | 25.5% | 53.9% | 50.9% | 29.4% | 23.6% | 38.5% | 30% | 27% | 21.7% | 33.5% | 21.3% | viability, T/C [31]: 22.7%; viability, T/C [12]: 25.1%; viability, T/C [32]: 19.5%; viability, T/C [16]: 24.1%; viability, T/C [17]: 20.2%; viability, T/C [18]: 21.6%; viability, T/C [33]: 17.4%; viability, T/C [22]: 18.5%; viability, T/C [23]: 18.4%; viability, T/C [24]: 21.2%; viability, T/C [34]: 14.3%; viability, T/C [28]: 27.5%; viability, T/C [29]: 20.4%; viability, T/C [30]: 16.9%; viability, T/C [35]: 11.2%
O=C(c1cc(Cc2n[nH]c(=O)c3ccccc23)ccc1F)N1CCN(C(=O)C2CC2)CC1 + CC1OCC2(CCN(c3cnc(Sc4ccnc(N)c4Cl)c(N)n3)CC2)C1N | 6.46 µM | 5.42 µM | 2.28 µM | < 0.0316 µM | < 0.0316 µM | 90% | 84.3% | 80.8% | 85.4% | 66.8% | 84.2% | 83.7% | 78.6% | 69.5% | 101% | 70.1% | 44.2% | 43% | 37.1% | 40.5% | viability, T/C [31]: 39.8%; viability, T/C [12]: 57.6%; viability, T/C [32]: 41.1%; viability, T/C [16]: 63.7%; viability, T/C [17]: 65.5%; viability, T/C [18]: 51.2%; viability, T/C [33]: 34.5%; viability, T/C [22]: 40.3%; viability, T/C [23]: 44.1%; viability, T/C [24]: 37%; viability, T/C [34]: 26.1%; viability, T/C [28]: 36.8%; viability, T/C [29]: 43.2%; viability, T/C [30]: 32.7%; viability, T/C [35]: 28%
